Values of other authors as cited in US20210319872A1, “DRUG AND DEVICE COMBINATION PRODUCTS WITH IMPROVED SAFETY AND EFFICACY PROFILES” (priority 2016, published 2021).

For CCN(C(C)=O)c1cccc(-c2ccnc3c(C#N)cnn23)c1 [Sonata (zaleplon)], the Anaphylaxis (in vivo) is given as “Immunologic: Anaphylaxis (rare)”, the Angioedema (in vivo) is given as “Other: Angioedema (rare)” and the Depression (in vivo) is given as “Depression (at least 1%), Suicidal behavior, Suicidal thoughts”. For the same molecule, the Dizziness (in vivo) was “Neurologic: Dizziness (7% to 9%), Headache (30% to 42%)”, the Drug withdrawal seizure (in vivo) was “Neurologic: Drug withdrawal seizure (rare)” and the Headache (in vivo) was “Neurologic: Dizziness (7% to 9%), Headache (30% to 42%)”.

In the case of CC(C)NCC(O)c1ccc(NS(C)(=O)=O)cc1 (stereo not drawn) [Sotalol (Betapace)], the Bradyarrhythmia (in vivo) is listed as 12.3% to 16%; pediatric, 4%), Cardiac dysrhythmia (5%),, the Cardiac dysrhythmia (in vivo) is listed as 12.3% to 16%; pediatric, 4%), Cardiac dysrhythmia (5%), and the Cerebrovascular accident (in vivo) is listed as “Neurologic: Cerebrovascular accident (1%)”. The Chest pain (in vivo) was “Cardiovascular: Chest pain (Adult, 16%; pediatric, 4%),”, the Congestive heart failure (in vivo) was “Congestive heart failure (1.2% to 3.3%), Heart failure (5%),” and the Disturbance of consciousness (in vivo) was “Neurologic: Disturbance of consciousness (4%), Dizziness (13.1%”. The Dizziness (in vivo) was “Neurologic: Disturbance of consciousness (4%), Dizziness (13.1%”, the Dyspnea (in vivo) was “Respiratory: Dyspnea (9.2% to 21%)” and the Fatigue (in vivo) was “Other: Fatigue (18.9% to 20%)”. The Heart failure (in vivo) was “Congestive heart failure (1.2% to 3.3%), Heart failure (5%),”, the Lightheadedness (in vivo) was “Lightheadedness (12%)” and the Rash (in vivo) was “Dermatologic: Rash (5%)”. The Torsades de pointes (in vivo) was “Prolonged QT interval, Torsades de pointes (0.5% to 4%)”.

In the case of CCOC(=O)C1=C(C)NC(C)=C(C(=O)OC)C1c1cccc(Cl)c1Cl (stereo not drawn) [Felodipine (Plendil)], the Flushing (in vivo) is listed as “Dermatologic: Flushing (3.9% to 6.9%)”, the Headache (in vivo) is listed as “Neurologic: Headache (10.6% to 14.7%)” and the Hypotension (in vivo) is listed as “Cardiovascular: Angina, Hypotension (less than 0.5%), Myocardial”. For the same molecule, the Indigestion (in vivo) was “Gastrointestinal: Indigestion (0.5% to 3.9%)”, the Peripheral edema (in vivo) was “Cardiovascular: Peripheral edema (2% to 17.4%)” and the Upper respiratory infection (in vivo) was “Respiratory: Upper respiratory infection (0.7% to 3.9%)”.

For CCCCNc1cc(C(=O)O)cc(S(N)(=O)=O)c1Oc1ccccc1 [Bumetanide (Bumex)], the “Azotemia (incidence)” value (in vivo) is given as “Renal: Azotemia (10.6%)”, the “Cramp (incidence)” value (in vivo) is given as “Musculoskeletal: Cramp (1.1%)” and the “Dizziness (incidence)” value (in vivo) is given as “Neurologic: Dizziness (1.1%), Headache (0.6%)”. The “Encephalopathy (incidence)” value (in vivo) was “Neurologic: Encephalopathy (0.6%)”, the “Headache (incidence)” value (in vivo) was “Neurologic: Dizziness (1.1%), Headache (0.6%)” and the “Hyperuricemia (incidence)” value (in vivo) was “Endocrine metabolic: Hyperuricemia (18.4%), Hypochloremia”. The “Hypochloremia (incidence)” value (in vivo) was “(14.9%), Hypokalemia (14.7%)”, the “Hypokalemia (incidence)” value (in vivo) was “(14.9%), Hypokalemia (14.7%)” and the “Hypotension (incidence)” value (in vivo) was “Cardiovascular: Hypotension (0.8%)”. For the same molecule, the “Nausea (incidence)” value (in vivo) was “Gastrointestinal: Nausea (0.6%)”, the “Serious side effect listed (incidence not given)” value (in vivo) was “Dermatologic: Stevens-Johnson syndrome” and the “Thrombocytopenia (incidence)” value (in vivo) was “Hematologic: Thrombocytopenia (0.2%)”.

In the case of CN1CCN(C(=O)O[C@H]2c3nccnc3C(=O)N2c2ccc(Cl)cn2)CC1 [Lunesta (eszopiclone)], the Angioedema (in vivo) is listed as “Other: Angioedema (rare)”, the Disorder of taste (in vivo) is listed as “Gastrointestinal: Disorder of taste (8% to 34%), Vomiting (3%)” and the Dizziness (in vivo) is listed as “Neurologic: Dizziness (1% to 7%), Headache (13% to 21%),”. The Headache (in vivo) was “Neurologic: Dizziness (1% to 7%), Headache (13% to 21%),”, the Migraine (in vivo) was “Migraine (1% or greater)” and the Respiratory tract infection (in vivo) was “Respiratory: Respiratory tract infection (5% to 10%)”. For the same molecule, the Vomiting (in vivo) was “Gastrointestinal: Disorder of taste (8% to 34%), Vomiting (3%)”.

In the case of CCOC(=O)[C@H](CCc1ccccc1)N[C@@H](C)C(=O)N1Cc2cc(OC)c(OC)cc2C[C@H]1C(=O)O [Moexipril (Univasc)], the “Common side effects, listed without incidence” value (in vivo) is listed as “Other: Influenza-like symptoms”, the Cough (in vivo) is listed as “Respiratory: Cough (6.1%)” and the Diarrhea (in vivo) is listed as “Gastrointestinal: Diarrhea (3.1%)”. The Dizziness (in vivo) was “Neurologic: Dizziness (4.3%)”.

In the case of O=C(NC[C@H]1CN(c2ccc(N3CCOCC3=O)cc2)C(=O)O1)c1ccc(Cl)s1 [Rivaroxaban (Xarelto)], the Gastrointestinal hemorrhage (in vivo) is given as “fibrillation, 3.1%)” and the Syncope (in vivo) is given as “Cardiovascular: Syncope (1.2%)”.

For CC(C)NCC(O)COc1cccc2ccccc12 (stereo not drawn) [Propranolol (Inderal)], the Dizziness (in vivo) is given as “Neurologic: Dizziness (Hypertension, 4% to 7%), Sleep disorder” and the Fatigue (in vivo) is given as “Other: Fatigue (5% to 7%)”.

For CCCC(C)C1(CC)C(=O)NC(=O)NC1=O (stereo not drawn) [Nembutal (pentobarbital)], the Agitation (in vivo) is given as “Psychiatric: Agitation (less than 1%)”, the Apnea (in vivo) is given as “Respiratory: Apnea (less than 1%), Hypoventilation (less than 1%)” and the Confusion (in vivo) is given as “Neurologic: Confusion (less than 1%), Dizziness (less than 1%),”. The Dizziness (in vivo) was “Neurologic: Confusion (less than 1%), Dizziness (less than 1%),”, the Hypoventilation (in vivo) was “Respiratory: Apnea (less than 1%), Hypoventilation (less than 1%)” and the Injury of liver (in vivo) was “Hepatic: Injury of liver (less than 1%)”. The Megaloblastic anemia (in vivo) was “Hematologic: Megaloblastic anemia (less than 1%)”, the Somnolence (in vivo) was “Somnolence (1% to 3%)” and the Stevens-Johnson syndrome (in vivo) was “Dermatologic: Stevens-Johnson syndrome (less than 1%)”.

In the case of CCOC(=O)[C@H](CCc1ccccc1)N[C@@H](C)C(=O)N1[C@H](C(=O)O)C[C@H]2CCCC[C@@H]21 [Trandolapril (Mavik)], the Cardiogenic shock (in vivo) is given as “Cardiovascular: Cardiogenic shock (3.8%), Intermittent”, the Cough (in vivo) is given as “Respiratory: Cough (1.9% to 35%)” and the Dizziness (in vivo) is given as “Neurologic: Dizziness (1.3% to 23%)”. For the same molecule, the Hyperkalemia (in vivo) was “Endocrine metabolic: Hyperkalemia (0.3% to 5.3%)”, the Hypotension (in vivo) was “Cardiovascular: Hypotension (0.6% to 11%), Syncope (5.9%)” and the Indigestion (in vivo) was “Gastrointestinal: Indigestion (0.3% to 6.4%)”. The Intermittent claudication (in vivo) was “claudication (3.8%)”, the “Serum blood urea nitrogen raised” value (in vivo) was “Renal: Serum blood urea nitrogen raised (9%)” and the Syncope (in vivo) was “Cardiovascular: Hypotension (0.6% to 11%), Syncope (5.9%)”.

For CC(=O)O[C@H]1CC[C@@]2(C)C(=CC[C@@H]3[C@@H]2CC[C@]2(C)C(c4cccnc4)=CC[C@@H]32)C1 [Zytiga], the ALT/SGPT level raised (in vivo) is listed as “Hepatic: ALT/SGPT level raised (11.1% to 41.9%), AST/SGOT”, the AST/SGOT level raised (in vivo) is listed as “level raised (30.6% to 37.3%), Serum bilirubin raised (6.6%)” and the Adrenal insufficiency (in vivo) is listed as “Endocrine metabolic: Adrenal insufficiency (0.5%), Hypokalemia”. The Alkaline phosphatase raised (in vivo) was “Hepatic: Alkaline phosphatase raised (Greater than 20%)”, the Anemia (in vivo) was “Hematologic: Anemia (Greater than 20%), Lymphocytopenia, All” and the Cardiac dysrhythmia (in vivo) was “Cardiovascular: Cardiac dysrhythmia (7.2%), Cardiorespiratory”. The Contusion (in vivo) was “Dermatologic: Contusion (13.3%), Flushing (19% to 22.3%)”, the Cough (in vivo) was “Respiratory: Cough (10.6% to 17.3%), Dyspnea (11.8%)” and the Dyspnea (in vivo) was “Respiratory: Cough (10.6% to 17.3%), Dyspnea (11.8%)”. For the same molecule, the Fatigue (in vivo) was “Other: Fatigue (39.1%)”, the Flushing (in vivo) was “Dermatologic: Contusion (13.3%), Flushing (19% to 22.3%)” and the Hypercholesterolemia (in vivo) was “Endocrine metabolic: Hypercholesterolemia (Greater than 20%),”. For the same molecule, the Hyperglycemia (in vivo) was “Hyperglycemia (56.6%), Hypertriglyceridemia (62.5%),”, the Hypertriglyceridemia (in vivo) was “Hyperglycemia (56.6%), Hypertriglyceridemia (62.5%),” and the Hypokalemia (in vivo) was “(17.2% to 28.3%)”. The Hypophosphatemia (in vivo) was “Hypophosphatemia (23.8%)”, the Joint swelling (in vivo) was “Musculoskeletal: Joint swelling (29.5% to 30.3%)” and the “Lymphocytopenia, All grades” value (in vivo) was “grades (38.2%)”. The “Lymphocytopenia, Grade 3 or 4” value (in vivo) was “Hematologic: Lymphocytopenia, Grade 3 or 4 (8.7%)”, the Serum bilirubin raised (in vivo) was “level raised (30.6% to 37.3%), Serum bilirubin raised (6.6%)” and the “Urinary tract infectious disease” value (in vivo) was “Renal: Urinary tract infectious disease (11.5%)”.

For O=C1CCc2ccc(OCCCCN3CCN(c4cccc(Cl)c4Cl)CC3)cc2N1 [Aripiprazole (Abilify)], the Akathisia (in vivo) is given as “Neurologic: Akathisia (2% to 25%), Dizziness (4% to 10%),”, the Angioedema (in vivo) is given as “Other: Angioedema (0.1% to less than 1%), Increased body” and the Anxiety (in vivo) is given as “Psychiatric: Anxiety (4% to 17%), Restlessness (2% to 12%)”. The Cardiorespiratory arrest (in vivo) was “Cardiovascular: Cardiorespiratory arrest (0.1% to 1%),”, the Cardiorespiratory failure (in vivo) was “Cardiorespiratory failure (0.1% to 1%), Myocardial infarction” and the Constipation (in vivo) was “Gastrointestinal: Constipation (5% to 11%), Nausea (8% to 15%),”. The Diabetic ketoacidosis (in vivo) was “Endocrine metabolic: Diabetic ketoacidosis (Less than 0.1%)”, the Dizziness (in vivo) was “Neurologic: Akathisia (2% to 25%), Dizziness (4% to 10%),” and the Extrapyramidal sign (in vivo) was “Extrapyramidal sign (2% to 27.3%), Headache (10% to 27%),”. For the same molecule, the Fatigue (in vivo) was “Other: Fatigue (2% to 17%)”, the Headache (in vivo) was “Extrapyramidal sign (2% to 27.3%), Headache (10% to 27%),” and the Leukopenia (in vivo) was “Hematologic: Agranulocytosis, Leukopenia (Less than 1%),”. For the same molecule, the Myocardial infarction (in vivo) was “(0.1% to 1%), Prolonged QT interval (0.1% to 1%)”, the Nausea (in vivo) was “Gastrointestinal: Constipation (5% to 11%), Nausea (8% to 15%),” and the Neutropenia (in vivo) was “Neutropenia (Less than 1%)”. For the same molecule, the Pancreatitis (in vivo) was “Gastrointestinal: Pancreatitis (Less than 0.1%)”, the “Prolonged QT interval” value (in vivo) was “(0.1% to 1%), Prolonged QT interval (0.1% to 1%)” and the Restlessness (in vivo) was “Psychiatric: Anxiety (4% to 17%), Restlessness (2% to 12%)”. The Rhabdomyolysis (in vivo) was “Musculoskeletal: Rhabdomyolysis (Less than 0.1%)”, the Sedated (in vivo) was “Insomnia (8% to 18%), Sedated (3% to 21%), Somnolence (6% to” and the Seizure (in vivo) was “Neurologic: Cerebrovascular accident, Seizure (Up to 0.3%),”. For the same molecule, the Tremor (in vivo) was 26.3%), Tremor (2% to 11.8%) and the Vomiting (in vivo) was “Vomiting (3% to 11%)”.

For Cc1ccsc1C(=CCCN1CCC[C@@H](C(=O)O)C1)c1sccc1C [Gabitril], the Confusion (in vivo) is listed as 5%, the Disturbance in speech (in vivo) is listed as 4% and the Nausea (in vivo) is listed as 11%. For the same molecule, the Pruritus (in vivo) was “Dermatologic: Pruritus (2%)”, the “Serious side effect, Dermatologic” value (listed without frequency) was “Dermatologic: Stevens-Johnson syndrome” and the “Serious side effect, Neurologic” value (listed without frequency) was “Seizure, in patients without epilepsy”. The “Serious side effect, Psychiatric” value (listed without frequency) was “Psychiatric: Suicidal thoughts”.

In the case of CCC(=O)O[C@@H](O[P@](=O)(CCCCc1ccccc1)CC(=O)N1C[C@H](C2CCCCC2)C[C@H]1C(=O)O)C(C)C [Fosinopril (Monopril)], the Cough (in vivo) is listed as “Respiratory: Cough (2.2% to 9.7%)”, the Dizziness (in vivo) is listed as “Neurologic: Dizziness (1.6% to 11.9%)” and the Hyperkalemia (in vivo) is listed as “Endocrine metabolic: Hyperkalemia (2.6%)”. The Hypotension (in vivo) was “Cardiovascular: Hypotension (2.4% to 4.4%)” and the Nausea and vomiting (in vivo) was “Gastrointestinal: Nausea and vomiting (1.2% to 2.2%)”.
